Measurements taken from ChEMBL document CHEMBL5316350, “Novel Pyrido[2',1':2,3]imidazo[4,5-c]quinoline Derivative Selectively Poisons Leishmania donovani Bisubunit Topoisomerase 1 to Inhibit the Antimony-Resistant Leishmania Infection in Vivo” (J Med Chem, 2023).
The source made the active and inactive calls. No cut-off for these calls is given here.

Columns and labels:
[1] = molecular target: T1, DNA topoisomerase I (Leishmania donovani (strain BPK282A1)) (UniProt E9BRC0); test: Binding affinity to antimony resistant Leishmania donovani BHU575 promastigotes recombinant topoisomerase I assessed as stabilization of cleavage complex at 5 to 50 uM measured after 30 mins; details: dose 5-50 µM
T1 sequence (whole entry): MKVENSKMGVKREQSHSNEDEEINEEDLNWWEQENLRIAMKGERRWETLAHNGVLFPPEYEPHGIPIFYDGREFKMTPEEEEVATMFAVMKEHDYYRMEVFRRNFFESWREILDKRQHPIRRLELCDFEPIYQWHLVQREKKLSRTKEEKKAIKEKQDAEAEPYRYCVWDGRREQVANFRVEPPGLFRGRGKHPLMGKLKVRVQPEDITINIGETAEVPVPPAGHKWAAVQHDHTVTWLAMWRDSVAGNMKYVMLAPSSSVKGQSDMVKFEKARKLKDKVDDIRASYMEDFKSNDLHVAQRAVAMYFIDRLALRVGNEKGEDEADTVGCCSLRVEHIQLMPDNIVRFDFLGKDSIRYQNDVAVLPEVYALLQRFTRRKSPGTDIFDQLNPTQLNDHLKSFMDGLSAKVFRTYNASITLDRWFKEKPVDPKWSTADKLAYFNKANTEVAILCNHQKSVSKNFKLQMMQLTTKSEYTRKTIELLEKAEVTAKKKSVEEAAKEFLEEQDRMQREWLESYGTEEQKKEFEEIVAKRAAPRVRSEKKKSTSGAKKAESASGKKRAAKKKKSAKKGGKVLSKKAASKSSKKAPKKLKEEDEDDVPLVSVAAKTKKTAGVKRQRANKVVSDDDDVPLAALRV

[2] = molecular target: T1, DNA topoisomerase I (Leishmania donovani (strain BPK282A1)); test: Binding affinity to Leishmania donovani topoisomerase I assessed as DNA intercalation by measuring dislodging of bound fluorophore at 200 uM by EtBr displacement assay
[3] = system: Leishmania donovani; test: Antileishmanial activity in Leishmania donovani Ag83 promastigotes assessed as persistent Top1cc-induced DNA breakdown by measuring TUNEL positive cells treated for 6 to 12 hrs followed by compound removal measured after 6 to 12 hrs by confocal microscopic analysis relative to camptothecin; assay type: functional, organism-based; details: time 6-12 hrs
[4] = molecular target: T2, DNA topoisomerase 1 (Homo sapiens) (UniProt P11387); test: Inhibition of human recombinant Top1 infected in Sf9 cells assessed as plasmid DNA relaxation upto 100 uM measured after 30 mins
T2 sequence (whole entry): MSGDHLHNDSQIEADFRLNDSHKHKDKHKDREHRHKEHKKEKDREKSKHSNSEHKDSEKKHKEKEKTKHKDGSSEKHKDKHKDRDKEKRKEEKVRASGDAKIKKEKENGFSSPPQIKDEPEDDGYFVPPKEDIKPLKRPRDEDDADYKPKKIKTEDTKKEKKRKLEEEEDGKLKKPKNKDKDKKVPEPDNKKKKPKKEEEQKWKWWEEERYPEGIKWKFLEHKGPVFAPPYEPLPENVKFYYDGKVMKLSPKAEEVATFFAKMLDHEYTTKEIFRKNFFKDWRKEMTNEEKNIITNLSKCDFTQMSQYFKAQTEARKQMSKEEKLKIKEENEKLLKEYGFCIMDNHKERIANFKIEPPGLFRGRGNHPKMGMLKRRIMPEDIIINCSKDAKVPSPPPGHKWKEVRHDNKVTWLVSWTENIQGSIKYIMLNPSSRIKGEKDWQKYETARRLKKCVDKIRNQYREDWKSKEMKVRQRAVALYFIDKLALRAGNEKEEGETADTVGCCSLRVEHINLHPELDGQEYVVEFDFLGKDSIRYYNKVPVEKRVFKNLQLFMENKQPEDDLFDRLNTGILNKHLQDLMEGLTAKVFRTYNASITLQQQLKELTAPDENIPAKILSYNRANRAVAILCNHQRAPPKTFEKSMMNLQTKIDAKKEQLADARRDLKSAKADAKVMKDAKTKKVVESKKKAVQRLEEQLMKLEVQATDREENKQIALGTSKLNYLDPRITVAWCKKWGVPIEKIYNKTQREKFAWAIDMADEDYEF

[5] = system: Leishmania donovani; test: Antileishmanial activity against antimony resistant Leishmania donovani BHU575 amastigotes infected in BALB/c mouse macrophage assessed as cell viability measured after 48 hrs infection by propidium iodide staining analysis relative to control; assay type: functional, organism-based; details: BHU575, 48 h
[6] = system: Leishmania donovani; test: Induction of cell cycle arrest in antimony resistant Leishmania donovani BHU575 promastigotes assessed as decrease in accumulation of cells in G2/M phase at 5 uM measured after 24 hrs by PI staining based flow cytometry (reference value: 8.8%); assay type: functional; set-up: scale not given: the % may be the effect or the level left
[7] = system: Leishmania donovani; test: Induction of cell cycle arrest in Leishmania donovani Ag83 promastigotes assessed as decrease in accumulation of cells in G2/M phase at 5 uM measured after 6 hrs by PI staining based flow cytometry (reference value: 15.1 %); assay type: functional; set-up: scale not given: the % may be the effect or the level left
[8] = system: Leishmania donovani; test: Antileishmanial activity against Leishmania donovani Ag83 promastigotes infected in BALB/c mouse assessed as reduction of amastigote burden in spleen treated after 3 weeks of infection at 5 to 10 mg/kg, ip twice a week for 3 weeks by Giemsa staining stamp-smear based limiting dilution assay; assay type: functional, organism-based; details: dose 5-10 mg/kg
[9] = system: Leishmania donovani; test: Induction of apoptosis in Leishmania donovani BHU575 assessed as DNA break accumulation measured at 5 uM after 6 to 24 hrs by TUNEL staining based assay; assay type: functional, organism-based; details: time 6-24 hrs
[10] = molecular target: T1, DNA topoisomerase I (Leishmania donovani (strain BPK282A1)); test: Binding affinity to topoisomerase I in Leishmania donovani Ag83 whole cell lysate assessed as stabilization of cleavage complex at 5 to 50 uM measured after 30 mins; assay type: subcellular; details: dose 5-50 µM
[11] = system: HEK293; test: Potency index ratio of test compound IC50 to camptothecin IC50 for cytotoxicity against HEK293 cells; assay type: functional, Homo sapiens
[12] = system: Leishmania donovani; test: Induction of cell cycle arrest in Leishmania donovani Ag83 promastigotes assessed as decrease in accumulation of cells in S phase at 5 uM measured after 12 hrs by PI staining based flow cytometry (reference value: 18.1%); assay type: functional; set-up: scale not given: the % may be the effect or the level left
[13] = Selectivity index ratio of EC50 for BALB/c mouse macrophage to ratio of EC50 for antileishmanial activity against Leishmania amastigotes; assay type: toxicity; details: mouse macrophages, read-out: Ratio EC50
[14] = system: Leishmania donovani; test: (§1) Antileishmanial activity against Leishmania donovani Ag83 promastigotes infected in BALB/c mouse model of visceral leishmaniasis assessed as fold change in T-helper type 1 immunological evoke response in splenocytes by measuring decrease in TGF-beta level treated after 3 weeks of infection at 5 to 10 mg/kg, ip twice a week for 3 weeks by RT-PCR analysis; assay type: functional; details: dose 5-10 mg/kg
[15] = system: Leishmania donovani; test: Antileishmanial activity in Leishmania donovani Ag83 promastigotes assessed as Top1cc-induced DNA breakdown by measuring TUNEL positive cells by confocal microscopic analysis; assay type: functional, organism-based; details: time 6-12 hrs, TDE = time-dependent effect
[16] = system: Leishmania donovani; test: as §1, with “as” for “as fold change in”, “type 2” for “type 1”, “in IL-4” for “in TGF-beta”; assay type: functional, organism-based; details: dose 5-10 mg/kg
[17] = system: Leishmania donovani; test: Induction of apoptosis in Leishmania donovani Ag83 promastigotes assessed as viable cells measured at 5 uM after 12 hrs by Annexin V-FITC/PI staining based flow cytometric analysis (reference value: 99.4%); assay type: functional
[18] = system: Leishmania donovani; test: Antileishmanial activity against antimony resistant Leishmania donovani BHU575 promastigotes assessed as cell viability by MTT assay; assay type: functional, organism-based

## COc1cc(-c2nc3ccccc3c3nc4ccccn4c23)cc(OC)c1OC
[1]
  Activity: Active
[2]
  Activity: inactive
[3]
  Activity: Active
[4]
  inhibition: inactive
[5]
  EC50: 7.06 µM
[6]
  Activity: 33.6%
[7]
  Activity: 27.7%
[8]
  Activity: Active
[9]
  Activity: Active
[10]
  Activity: Active
[11]
  Ratio IC50: 90
[12]
  Activity: 43.1%
[13]
  selectivity ratio: 9.25
[14]
  fold change (FC): 2
[15]
  Activity: Tde
[16]
  Activity: Active
[17]
  Activity: 2%
[18]
  EC50: 4.8 µM
